The values that follow come from publication PMC2323292, “Immunodominant Tuberculosis CD8 Antigens Preferentially Restricted by HLA-B” (PLoS Pathogens, 2007).

Where two headings read alike, the source gives them in different places.

Test [1] relates to CD8+ T cells. As to the kind of experiment: Ex vivo IFN-γ ELISPOT, CD8+ T cells with peptide-pulsed autologous DCs. The test is classed as cell-based, human. To be noted: donor 443 (LTBI), linear regression.
Test [2] has as its system CD8+ T cells. To be noted: donor 160; ex vivo, autologous DCs pulsed with epitope; clones published previously ref 17; cited from earlier work. The source says: Table 3 Summary of CD8+ T Cell Epitopes Identified | column: Epitope-Specific T Cells^a

As for ELPQWLSANR, the “Epitope-Specific T Cells” value in test [1] is reported as <10 IFN-γ spot forming units per 2. Turning to RADEEQQQAL, the “Epitope-Specific T Cells” value in test [2] is reported as 120 IFN-γ spot forming units per 2.
